Laboratory results from a melting point compilation (Tetko et al.; mined from patent text by program, amines drawn as free bases though some values may be those of a salt).

`CN(C(C)(C)CC(=O)Oc1ccccc1C(C)(C)C)S(=O)(=O)C(F)(F)F` gave a melting point of 42 to 44 °C.
With `CC(C)c1ccc2c(c1)C(=O)c1ccc(C(=O)O)cc1CC2` the melting point was 178 to 182 °C.
With `CSCC(C)(C)NC(=O)c1c(I)cccc1-c1ccc(C(F)(F)F)cc1` the melting point was 194 to 196 °C.
In the case of `CCOC(=O)C(=O)Nc1cccc(OCCO)c1C(N)=O`, the melting point was 146 to 148 °C.
Compound `Cc1cc(C)nc(NC(=O)Cc2cc(Br)sc2Br)c1` has a melting point of 109 °C.
With `CC1(C)Cc2c(Cl)cccc2C=[N+]1[O-]` the melting point was 104 to 106 °C.
Work on `CCCNC(=O)C=Cc1ccc2ccn(Cc3ccc(C(=O)NS(=O)(=O)c4ccccc4C)cc3OC)c2c1` yielded a melting point of 240 to 242 °C.
For `CN1C(=O)CCc2cc(Cl)ccc21`, the melting point was 76 to 78 °C.
Compound `NNc1cccc(-c2ccccn2)n1` has a melting point of 69 to 70 °C.
With `O=C1Nc2ccccc2N(C(=O)Cl)c2c1csc2Cl` the melting point was 158 to 161 °C.
Compound `CCN(CC)CCc1ccc2[nH]c(C)c(C(=O)O[C@@H](C)c3ccccc3)c2c1` has a melting point of 95 to 97 °C.
For `CCOC(=O)COc1ccccc1C(O)(CC)c1cccc(Cl)c1` (stereo not drawn), the melting point was 83 to 84 °C.
`C=C(C(=O)OCC)c1cccc(-c2cc3c(cc2C)C(C)(C)CCC3(C)C)c1` gave a melting point of 70 to 72 °C.
For `CCCCCS(=O)(=O)NC(=O)/C(C)=C/c1ccc(OCCOC)cc1Oc1ncc(Cl)cc1Cl`, the melting point was 97 to 98 °C.
In the case of `CCCSc1cn(C)cc(-c2ccc(Cl)c(C(F)(F)F)c2)c1=O`, the melting point was 128 to 130 °C.
Compound `COc1nc(-c2ccc(F)cc2C)c2c(n1)N(c1c(F)cccc1F)C(=O)NC2` has a melting point of 210 to 211 °C.
`CC1(C)Cc2sccc2C(=O)N1` showed a melting point of 153 to 154 °C.
Work on `COCCN(CCOC)C1CCN(c2ccc(NC(=O)c3cnn(-c4ccc(Cl)cc4)c3C)cc2C#N)CC1` yielded a melting point of 152 °C.
Work on `C#CCn1nc(-c2ccc(SC)cc2)c(-c2ccc(F)cc2)c1C(F)(F)F` yielded a melting point of 136 to 138 °C.
Work on `COc1ccc(-c2cnc(N)c(Sc3ccccc3)n2)cc1` yielded a melting point of 89 to 90 °C.
With `CC=C1CCC2C3CC=C4CC(O[Si](CC)(CC)CC)CC(O[Si](CC)(CC)CC)C4(C)C3CCC12C` (stereo not drawn) the melting point was 81 to 82 °C.
Work on `CC(CC=O)P(=O)(O)CCCCc1ccccc1` (stereo not drawn) yielded a melting point of 138 °C.
Work on `Cc1nc2c(c3c1[nH]c1cc(F)ccc13)C(=O)CC(C)(C)C2` yielded a melting point of 244 to 246 °C.
Compound `NC(=O)c1ccc(N2CCN(Cc3cn4cc(Cl)cc(Cl)c4n3)CC2)cc1` has a melting point of 234 to 235 °C.
For `O=C1N(Cc2ccc(C(F)(F)F)o2)c2ccc(F)cc2C1(CO)c1cc2c(cc1O)OCO2` (stereo not drawn), the melting point was 92 to 95 °C.
`CCN(CC)CCOc1ccc2c(c1)C(=O)c1ccc(OCCN(CC)CC)cc1C2=O` showed a melting point of 169 to 170 °C.
In the case of `COC(=O)NNC(=O)c1ccc([N+](=O)[O-])o1`, the melting point was 155 °C.
Work on `Cc1cc(Cl)cc(Cl)c1S(=O)(=O)Nc1nc(CC(=O)N2CCOCC2)c(C)s1` yielded a melting point of 186 to 187 °C.
With `CC(C)CNC(=O)C(C)NC(=O)C(C)NC(=O)C(C)NC(=O)CCC(=O)O` (stereo not drawn) the melting point was 283 to 286 °C.
Compound `Cn1c(-c2cccs2)n[nH]c1=O` has a melting point of 183 to 185 °C.
With `Cc1ccc2c(c1)c(=O)[nH]c(=O)n2CCCCN1CCC(OC(c2ccccc2)c2ccccc2)CC1` the melting point was 180 to 182 °C.
`CCOCc1nc2c(NC(=O)c3ccccc3)nc3ccccc3c2n1CC(C)(C)NS(C)(=O)=O` gave a melting point of 80 to 83 °C.
With `Nc1c(-c2ccc(I)cc2)nc2ccc(F)cc2c1C(=O)O` the melting point was 251 to 253 °C.
In the case of `CC(C)CCCC(C)C1CC=C2C3=C(CCC21C)C1(C)CC=CCC1CC3` (stereo not drawn), the melting point was 105 °C.
`Cc1cn(C2(C(=O)N(C)C)CCCC2)nc1-c1ccccc1` showed a melting point of 99 to 101 °C.
Compound `CCNCC1CCN(c2c(F)cc3c(=O)c(C(=O)O)cn(C4CCCC4)c3c2F)C1` (stereo not drawn) has a melting point of 214 to 217 °C.
`N#Cc1c([N+](=O)[O-])ccc(N2CCCC2)c1Cl` showed a melting point of 170 to 173 °C.
Compound `CCOC(=O)C(=NO)c1cccc(C(=O)c2ccccc2)c1` has a melting point of 109 to 110 °C.
Compound `CC1(C)CC(c2ccccc2)=NC1=Cc1ccccc1` has a melting point of 101 to 103 °C.
`Nc1ncc(-c2ccc(=O)[nH]n2)c(-c2ccc(Cl)c(Cl)c2)n1` gave a melting point of 300 °C.
In the case of `Cc1nn(-c2ccccc2)c(C)c1CC#N`, the melting point was 69 to 70 °C.
Work on `COCn1ccnc1C(O)(c1ccc(Cl)cc1)c1ccc(C(C)(C)C)cc1` (stereo not drawn) yielded a melting point of 162 to 163 °C.
With `CC(C)Oc1ccc(OCc2ccccc2)cc1-c1nc2cccnc2[nH]1` the melting point was 160 to 162 °C.
With `CCN(C(=O)c1cnc(N2CC(C)(C)NC2=O)nc1N)c1cccc(C(F)(F)F)c1` the melting point was 186 to 187 °C.
With `O=C(O)CCC(=O)c1ccc(-c2ccc(Cl)cc2)cc1` the melting point was 184 to 185 °C.
For `C#CC1(OC(=O)C(C)C)C(COC(=O)c2ccc(Cl)cc2)OC(n2ccc(N)nc2=O)C1OC(=O)C(C)C` (stereo not drawn), the melting point was 106 to 108 °C.
`O=C(O)Cn1cc(Cc2nc3c(F)c(F)cc(F)c3s2)c2cc(-c3ccccc3)ccc21` showed a melting point of 156 to 159 °C.
In the case of `Cc1ccc(CCCO)c(NCc2ccc3nc(NCCCN4CCOCC4)n(Cc4cccc(Br)n4)c3c2)c1`, the melting point was 141 °C.
`O=C(NCCCn1ccnc1-c1ccccc1)c1cc2ccccc2[nH]1` gave a melting point of 167 to 169 °C.
For `CCOC(=O)C1=C(C)Nc2cc[nH]c(=O)c2C1c1cccs1` (stereo not drawn), the melting point was 284 to 285 °C.
`CCN1C(=O)C(=O)N(c2c(C)cccc2C)C1=S` gave a melting point of 103 to 105 °C.
`O=C(O)c1cc2c(s1)C(=O)CCC2` showed a melting point of 174 to 175 °C.
With `Cc1cccc(-c2n[nH]cc2-c2ccc(F)c(-c3ccc(OCCO)cn3)c2)n1` the melting point was 148 to 151 °C.
With `CCc1cccc(C(C)C)c1NC(=O)NCC1(c2ccccc2)CCCCC1` the melting point was 178 to 180 °C.
`COCCOC(=O)C1=C(C(F)F)NC(C)=C(C(=O)OC(C)C)C1c1cccc([N+](=O)[O-])c1` (stereo not drawn) showed a melting point of 146 to 147 °C.
In the case of `OC(c1ccccc1Cl)C(c1ccccc1Cl)n1ccnc1` (stereo not drawn), the melting point was 62 to 68 °C.
In the case of `CCCCCCCCCCCCCCCCCCc1c(C(=O)OCC)[nH]c(C)c1C`, the melting point was 78 to 80 °C.
`Cc1cc(-c2ccc(Cl)c(Cl)c2)nc(-n2cnc(-c3cccc(S(N)(=O)=O)c3)c2)n1` gave a melting point of 210 °C.
In the case of `O=c1c2cnc3ccc(Cl)cc3c2on1-c1ccccc1`, the melting point was 174 °C.
Work on `O=C(NC(CO)c1ccccc1)c1ccccc1` (stereo not drawn) yielded a melting point of 235 to 236 °C.
In the case of `NCCOC(c1ccccc1)(c1ccccc1)c1ccccc1`, the melting point was 87 to 89 °C.
For `O=c1ccn(CCCO)c(CO)c1O`, the melting point was 138 to 139 °C.
`O=C(C=Cc1ccc(C(F)(F)F)cc1)N1CCc2c([nH]c3ccccc23)C1c1ccc2c(c1)OCO2` (stereo not drawn) gave a melting point of 233 °C.
Compound `CCOC(=O)C(C)(C)Cc1cccnc1` has a melting point of 64 to 66 °C.
With `CC(C)(C)c1cc(CCc2ccccc2NC(=O)NC2CCCCCC2)cc(C(C)(C)C)c1O` the melting point was 177 to 178 °C.
`Cc1ccc(S(=O)(=O)NC(C)(C)C)s1` showed a melting point of 89 °C.
In the case of `O=C(Cl)c1ccccc1NC(=O)c1ccccc1-c1ccccc1`, the melting point was 118 to 120 °C.
`c1cnnc(N2CCN(CCCOc3ccc(C4=NCCO4)cc3)CC2)c1` gave a melting point of 145 °C.
`O=C(O)c1cc(-c2ccccc2)cc2c(-c3ccccc3)c([N+](=O)[O-])oc12` gave a melting point of 207 to 209 °C.
Work on `CCCCCOC(=O)c1cc(O)nn1-c1ncccc1Cl` yielded a melting point of 172 to 173 °C.
Work on `N#CC(=Cc1ccc[nH]1)C(=O)O` yielded a melting point of 213 °C.
With `CCCN(CCC)C1CCc2cc(NC(C)=O)ccc2C1` (stereo not drawn) the melting point was 119 to 121 °C.
`O=C(OCCN1C(=O)c2ccccc2C1=O)c1cccc2c(=O)c(OCCN3C(=O)c4ccccc4C3=O)c(-c3ccc(OCc4ccc5ccccc5n4)cc3)oc12` gave a melting point of 211 to 212 °C.
For `COc1cc2c(cc1-c1ccoc1)C(=CNc1ccc(N3CCN(C)CC3)cc1)C(=O)NC2=O`, the melting point was 198 to 220 °C.
Compound `CCC1Cn2c(ncc(-c3nnn[nH]3)c2=O)-c2ccccc21` (stereo not drawn) has a melting point of 254 to 258 °C.
Compound `CCOC(=O)COc1cc2cc(C3CCCCC3)sc2c(Cl)c1Cl` has a melting point of 73 to 75 °C.
`CCc1nc2c(C#N)cccc2n1-c1ccc(CCNC(=O)NS(=O)(=O)c2ccc(C)cc2)cc1` showed a melting point of 95 to 103 °C.
In the case of `Oc1ccc(-c2nc3cc(O)c(Cl)cc3o2)cc1`, the melting point was 260 to 262 °C.
Compound `CCOC(=O)CNC(=O)COc1ccc(C=O)cc1` has a melting point of 94.5 to 95.5 °C.
`Cc1c(C)c(-c2cccc(CO)c2)c(C)c(C)c1O` showed a melting point of 152 to 153 °C.
Work on `CC(=NO)c1ccnc(C)c1` yielded a melting point of 151 to 152 °C.
Compound `Cc1ccc(C(=O)Nc2c(NC(=O)CN3CCSCC3)ccc3c2C(=O)c2ccccc2C3=O)cc1` has a melting point of 210 to 211 °C.
With `CCCCCCCCCCCCCCCCCCOc1cc(OC(C)=O)cc(N(CC(=O)O)CC(=O)O)c1` the melting point was 122 to 127 °C.
In the case of `CCCc1c2c(cc3c(=O)cc(C(=O)OCC)oc13)CC(C(=O)OCC)CC2` (stereo not drawn), the melting point was 89.5 to 90.5 °C.
Work on `O=C1N(C(c2ccccc2)c2ccccc2)c2ccccc2C1(O)c1cc2c(cc1O)OCCCO2` (stereo not drawn) yielded a melting point of 115 to 118 °C.
`CSc1ccc(F)cc1C(C)=O` showed a melting point of 82 to 84.3 °C.
`COc1ccc(-c2cc(C(=O)NCCCCCCc3ccccc3)cc(-c3cccc(C(F)(F)F)c3)c2OCCO)cc1` showed a melting point of 153 to 159 °C.
With `CCCCc1ncc(/C=C(\Cc2cccs2)C(=O)O)n1Cc1ccc(C(=O)O)cc1[N+](=O)[O-]` the melting point was 163 °C.
In the case of `CNCCN(C)C(=O)OC(Cc1ccccc1)C(=O)N(C)C(Cc1c[nH]cn1)C(=O)NC(CC1CCCCC1)C(O)CCC(C)C` (stereo not drawn), the melting point was 65 to 68 °C.
For `CCOC(=O)C=Cc1cc(-n2nc3ccc(Cl)cn3c2=O)c(F)cc1Cl`, the melting point was 162 to 165 °C.
For `CC(=O)Nc1ccccc1CS(=O)c1nccn1-c1ccncc1` (stereo not drawn), the melting point was 147 to 149 °C.
`O=C(O)c1cc(OCc2ccccc2)ccc1OC1CCOC1=O` (stereo not drawn) showed a melting point of 120 to 122 °C.
In the case of `CC(CO)(CO)NS(=O)(=O)c1cccc(NC(=O)c2cnn3c(C(F)F)cc(-c4ccc(C(F)(F)F)cc4)nc23)c1`, the melting point was 246 °C.
For `CC(C)c1ccc2c(c1)NC(=O)CC(c1ccnc(C#N)c1)=N2`, the melting point was 173 to 178 °C.
In the case of `Cc1c(C)c2c(c(C)c1Br)OCC2c1ccc(C(C)C)cc1` (stereo not drawn), the melting point was 56 to 57 °C.
`COc1cc(C(C)C)c2c(c1)S(=O)(=O)N(COc1cc(-c3ccccc3)nn1-c1ccccc1)C2=O` gave a melting point of 62 to 76 °C.
Compound `CCCCC(=O)NNC(=O)c1ccc([N+](=O)[O-])cc1` has a melting point of 185 to 187 °C.
`O=C(O)c1ccccc1OC(F)(F)C(F)F` showed a melting point of 158 to 160 °C.
